Data from PubChem BioAssay AID248 (DTP/NCI, 2004).
Values joined by “and” are separate entries in the source; they are usually repeats but may differ in a detail not shown here. Identical values can stand only once. Toxic doses and inconclusive results are not listed.

Test system: L1210 leukemia ip in BDF1 mice, survival T/C
Assay: NCI In Vivo Anticancer Drug Screen. Data for tumor model L1210 Leukemia (intraperitoneal) in B6D2F1 (BDF1) mice
Conditions: endpoint: mean survival time, higher = longer survival
How it was run: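 In this screen, tumor-bearing mice given compound are compared to those given vehicle, and their survival values are reported as a treated-to-control quotient.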

[1] = dose: 100.0 mg/kg/injection, schedule: Q01DX009 (ip), vehicle: saline
[2] = dose: 100.0 mg/kg/injection, schedule: Q01DX001 (ip), vehicle: carboxymethylcellulose (CMC)
[3] = dose: 200.0 mg/kg/injection, schedule: Q01DX001 (ip), vehicle: carboxymethylcellulose (CMC)
[4] = dose: 400.0 mg/kg/injection, schedule: Q01DX001 (ip), vehicle: carboxymethylcellulose (CMC)
[5] = dose: 100.0 mg/kg/injection, schedule: Q01DX001 (ip), vehicle: saline with Tween-80
[6] = dose: 100.0 mg/kg/injection, schedule: Q04DX003 (ip), vehicle: saline with Tween-80
[7] = dose: 200.0 mg/kg/injection, schedule: Q01DX001 (ip), vehicle: saline with Tween-80
[8] = dose: 200.0 mg/kg/injection, schedule: Q01DX009 (ip), vehicle: saline with Tween-80
[9] = dose: 200.0 mg/kg/injection, schedule: Q04DX003 (ip), vehicle: saline with Tween-80

For `CCCCCCNC(=O)COc1ccc(Cl)cc1`, the T/C (dose: 100.0 mg/kg/injection, schedule: Q04DX002 (ip), vehicle: Klucel (hydroxypropylcellulose) (HPC)) was 97 % of control, the T/C (dose: 200.0 mg/kg/injection, schedule: Q04DX002 (ip), vehicle: Klucel (hydroxypropylcellulose) (HPC)) was 93 % of control and the T/C (dose: 400.0 mg/kg/injection, schedule: Q04DX002 (ip), vehicle: Klucel (hydroxypropylcellulose) (HPC)) was 101 % of control.

`COc1ccc2c(c1)OC(OC)(c1ccccc1)C(O)(OC)C2=O` (stereo unspecified) was tested, and the T/C (dose: 50.0 mg/kg/injection, schedule: Q01DX001 (ip), vehicle: saline) was 96 % of control, the T/C (dose: 100.0 mg/kg/injection, schedule: Q01DX001 (ip), vehicle: saline) was 98 % of control and the T/C (dose: 200.0 mg/kg/injection, schedule: Q01DX001 (ip), vehicle: saline) was 96 % of control. The T/C (dose: 400.0 mg/kg/injection, schedule: Q01DX001 (ip), vehicle: saline) was 98 % of control.

`O=C1CCCN1C1=CC2=C(CCc3ccccc32)S(=O)(=O)O1` was tested, and the T/C [1] was 90 % of control, the T/C (dose: 100.0 mg/kg/injection, schedule: Q04DX003 (ip), vehicle: saline) was 100 % of control and the T/C (dose: 200.0 mg/kg/injection, schedule: Q01DX009 (ip), vehicle: saline) was 90 % of control. The T/C (dose: 200.0 mg/kg/injection, schedule: Q04DX003 (ip), vehicle: saline) was 94 % of control, the T/C (dose: 400.0 mg/kg/injection, schedule: Q01DX009 (ip), vehicle: saline) was 95 % of control and the T/C (dose: 400.0 mg/kg/injection, schedule: Q04DX003 (ip), vehicle: saline) was 108 % of control.

With `O=C(O)c1ccc(Br)cc1O` the T/C [2] was 98 % of control, the T/C [3] was 104 % of control and the T/C [4] was 95 % of control.

In the case of `O=C(O)C(Oc1ccc(Cl)cc1)c1ccc(Cl)cc1` (stereo unspecified), the T/C (dose: 100.0 mg/kg/injection, schedule: Q04DX003 (ip), vehicle: Klucel (hydroxypropylcellulose) (HPC)) is reported as 96 % of control and the T/C (dose: 200.0 mg/kg/injection, schedule: Q04DX003 (ip), vehicle: Klucel (hydroxypropylcellulose) (HPC)) is reported as 91 % of control.

For `C[N+](C)(C)/N=C1\CCc2ccccc21`, the T/C (dose: 50.0 mg/kg/injection, schedule: Q01DX009 (ip), vehicle: saline with Tween-80) was 100 % of control, the T/C (dose: 50.0 mg/kg/injection, schedule: Q04DX003 (ip), vehicle: saline with Tween-80) was 110 % of control and the T/C [5] was 97 % of control. For the same compound, the T/C (dose: 100.0 mg/kg/injection, schedule: Q01DX009 (ip), vehicle: saline with Tween-80) was 97 % of control, the T/C [6] was 98 % of control and the T/C [7] was 100 % of control. For the same compound, the T/C [8] was 103 % of control and the T/C [9] was 91 % of control.

For `CCCCCCCC(C(=O)O)C(C)C` (stereo unspecified), the T/C [5] was 94 % of control, the T/C [7] was 106 % of control and the T/C (dose: 400.0 mg/kg/injection, schedule: Q01DX001 (ip), vehicle: saline with Tween-80) was 105 % of control.

With `C/C=C(\C)C(N)=Nc1ccc(Cl)c(Cl)c1` the T/C (dose: 55.0 mg/kg/injection, schedule: Q01DX Z (ip), vehicle: methylcellulose (MC)) was 106 % of control, the T/C (dose: 83.0 mg/kg/injection, schedule: Q01DX Z (ip), vehicle: methylcellulose (MC)) was 102 % of control and the T/C (dose: 125.0 mg/kg/injection, schedule: Q01DX Z (ip), vehicle: methylcellulose (MC)) was 102 % of control.

For `Cc1ccc(CNC(=O)NCCCCCCNC(=O)NCc2ccc(C)cc2)cc1`, the T/C (dose: 100.0 mg/kg/injection, schedule: Q01DX009 (ip), vehicle: other) was 95 % of control, the T/C (dose: 200.0 mg/kg/injection, schedule: Q01DX009 (ip), vehicle: other) was 100 % of control and the T/C (dose: 400.0 mg/kg/injection, schedule: Q01DX009 (ip), vehicle: other) was 100 % of control.

In the case of `C=CCSc1ccnc(N)n1`, the T/C (dose: 50.0 mg/kg/injection, schedule: Q01DX001 (ip), vehicle: Klucel (hydroxypropylcellulose) (HPC)) is reported as 103 % of control and the T/C (dose: 100.0 mg/kg/injection, schedule: Q01DX001 (ip), vehicle: Klucel (hydroxypropylcellulose) (HPC)) is reported as 101 % of control.

For `CCOC(CNC(=O)c1cccc([N+](=O)[O-])c1)OCC`, the T/C (dose: 50.0 mg/kg/injection, schedule: Q01DX009 (ip), vehicle: Klucel (hydroxypropylcellulose) (HPC)) was 87 % of control, the T/C (dose: 100.0 mg/kg/injection, schedule: Q01DX009 (ip), vehicle: Klucel (hydroxypropylcellulose) (HPC)) was 98 % of control and the T/C (dose: 200.0 mg/kg/injection, schedule: Q01DX009 (ip), vehicle: Klucel (hydroxypropylcellulose) (HPC)) was 102 % of control.

In the case of `CCC12CC3(C(=O)OC)OC1C(O)CN1CCc4c(n3c3cc(OC)ccc43)C12` (stereo unspecified), the T/C (dose: 6.25 mg/kg/injection, schedule: Q04DX002 (ip), vehicle: saline with Tween-80) is reported as 100 % of control, the T/C (dose: 12.5 mg/kg/injection, schedule: Q04DX002 (ip), vehicle: saline with Tween-80) is reported as 107 % of control and the T/C (dose: 25.0 mg/kg/injection, schedule: Q04DX002 (ip), vehicle: saline with Tween-80) is reported as 103 % of control. The T/C (dose: 50.0 mg/kg/injection, schedule: Q04DX002 (ip), vehicle: saline with Tween-80) was 100 % of control and 86 % of control, the T/C (dose: 200.0 mg/kg/injection, schedule: Q04DX002 (ip), vehicle: saline with Tween-80) was 89 % of control and the T/C (dose: 400.0 mg/kg/injection, schedule: Q04DX002 (ip), vehicle: saline with Tween-80) was 89 % of control.

With `O=C(O)c1scc2c1CCCC2` the T/C [6] was 97 % of control and the T/C [9] was 87 % of control.

For `c1ccc(CCNc2ccnc3ccccc23)cc1`, the T/C (dose: 12.5 mg/kg/injection, schedule: Q01DX009 (ip), vehicle: Klucel (hydroxypropylcellulose) (HPC)) was 103 % of control, the T/C (dose: 12.5 mg/kg/injection, schedule: Q04DX003 (ip), vehicle: Klucel (hydroxypropylcellulose) (HPC)) was 104 % of control and the T/C (dose: 25.0 mg/kg/injection, schedule: Q01DX009 (ip), vehicle: Klucel (hydroxypropylcellulose) (HPC)) was 101 % of control. The T/C (dose: 25.0 mg/kg/injection, schedule: Q04DX003 (ip), vehicle: Klucel (hydroxypropylcellulose) (HPC)) was 97 % of control and the T/C (dose: 50.0 mg/kg/injection, schedule: Q04DX003 (ip), vehicle: Klucel (hydroxypropylcellulose) (HPC)) was 95 % of control.

In the case of `NC(=O)c1cc([N+](=O)[O-])ccc1N=NN(CCCl)CCCl`, the T/C [6] is reported as 114 % of control, the T/C (dose: 177.0 mg/kg/injection, schedule: Q04DX003 (ip), vehicle: saline with Tween-80) is reported as 111 % of control and the T/C [8] is reported as 107 % of control. For the same compound, the T/C (dose: 266.0 mg/kg/injection, schedule: Q04DX003 (ip), vehicle: saline with Tween-80) was 114 % of control and the T/C (dose: 400.0 mg/kg/injection, schedule: Q04DX003 (ip), vehicle: saline with Tween-80) was 165 % of control.

`Cc1ccc(N=Nc2sc(N)nc2C)c(C)c1` was tested, and the T/C (dose: 75.0 mg/kg/injection, schedule: Q01DX001 (ip), vehicle: saline) was 97 % of control and the T/C (dose: 150.0 mg/kg/injection, schedule: Q01DX001 (ip), vehicle: saline) was 103 % of control.

In the case of `Clc1nc(Br)[nH]c1Cl`, the T/C (dose: 1.56 mg/kg/injection, schedule: Q01DX009 (ip), vehicle: Klucel (hydroxypropylcellulose) (HPC)) is reported as 100 % of control, the T/C (dose: 3.12 mg/kg/injection, schedule: Q01DX009 (ip), vehicle: Klucel (hydroxypropylcellulose) (HPC)) is reported as 107 % of control and the T/C (dose: 6.25 mg/kg/injection, schedule: Q01DX009 (ip), vehicle: Klucel (hydroxypropylcellulose) (HPC)) is reported as 100 % of control and 113 % of control.

With `COc1ccc(C(CC(=O)O)c2cc(OC)c(OC)c(OC)c2)cc1OC` (stereo unspecified) the T/C [2] was 92 % of control, the T/C [3] was 93 % of control and the T/C [4] was 93 % of control.

With `C[N+](C)(C)CCCNC(=O)Nc1ccc(Cl)cc1` the T/C (dose: 3.13 mg/kg/injection, schedule: Q04DX002 (ip), vehicle: saline) was 102 % of control, the T/C (dose: 6.25 mg/kg/injection, schedule: Q04DX002 (ip), vehicle: saline) was 117 % of control and the T/C (dose: 12.5 mg/kg/injection, schedule: Q04DX002 (ip), vehicle: saline) was 106 % of control.

For `ClC/C=[CH]/[Sn]([c]1ccccc1)([c]1ccccc1)[c]1ccccc1`, the T/C (dose: 50.0 mg/kg/injection, schedule: Q01DX009 (ip), vehicle: saline) was 112 % of control and the T/C [1] was 116 % of control.
